{"source": "patent US10118943B2", "about": "“Compounds and methods for inhibiting cell death” (Ramot at Tel-Aviv University Ltd., priority 2012, dated 2018)", "key": {"PC12 cells [1]": {"system": "PC12 cells", "experiment": "PC12 cell survival assay, zinc toxicity, MTS (Example 1)", "conditions": "400 μM zinc, 4 hrs, peptide 10^−9M", "description": "PC12 cells (Pheochromocytoma cells) (ATCC, Bethesda, Md., USA) were seeded at 3×10^4 cells/cm^2 on poly-L-Lysine coated plastic tissue culture dishes (Corning, Lowell, Mass., USA) to form an adherent monolayer. Cells were maintained in Dulbecco's modified Eagle's medium (DMEM) supplemented with 10% horse serum (HS), 5% fetal calf serum (FCS), 2 mM glutamine, 100 U/ml penicillin and […] streptomycin (Biological Industries, Beit Haemek, Israel). PC12 differentiation was induced by nerve growth factor (NGF, Sigma) at concentrations of 50 ng/ml by replacing half of the medium every other day until the cells acquired a differentiated morphology. Differentiated cells were defined as bearing two or more neurites with lengths equal to or more than twice the diameter of the cell body (P. Lamoureux et al., The Journal of cell biology 110, 71 (January, 1990)). The cells were incubated in 5% CO2 in a humidified incubator at 37° C. The cells were sub-cultured every 5 days at a 4:1 split ratio by pipetting. The medium was changed every 2 or 3 days after adhesion.\nTransfections were performed using Lipofectamine RNAiMAX (Invitrogen). Transfection was carried out according to manufacturer's protocol. For rat MAPRE3 knockdown, PC12 cells or neurons were plated in growth medium without antibiotics at concentration of 10^4 cells/0.32 cm^2 such that they will be 30-50% confluent at the time of transfection. To obtain the highest transfection efficiency and low non-specific effects, siRNA transfection was performed in the following optimized conditions: 50 nM for neurons and 25 nM PC12 of each siRNA construct with 0.2 μl Lipofectamine RNAiMAX (Invitrogen) was added per well of the 96-well plate and scaled up for different 24 or 6-well plates, according to the manufacturer's instructions. The medium was changed one day after transfection. 48 and 72 hours later, cells were harvested to assay for gene knockdown at the RNA and protein levels.\nThe cells were incubated for 4 hrs at 37° C. 5% CO2. Survival was measured using the MTS assay.\nMetabolic activity of cells was measured by the CellTiter 96® Aqueous Non-Radioactive Cell Proliferation kit in accordance with the manufacturer's instructions (Promega). The assay uses a colorimetric method for determining the number of viable cells employing a tetrazolium compound [3-(4,5-dimethylthiazol-2-yl)-5-(3-carboxymethoxyphenyl)-2-(4-sulfophenyl)-2H-tetrazolium, MTS] and an electron-coupling reagent, phenazine methosulfate (PMS). MTS is bio-reduced by cells into a formazan product that is detected at 490 nm. The conversion of MTS into the formazan form is accomplished by dehydrogenase enzymes found in metabolically active cells. Thus, the quantity of formazan product as measured by the amount of 490 nm absorbance is directly proportional to the number of living cells in culture (A. H. Cory, T. C. Owen, J. A. Barltrop, J. G. Cory, Cancer Commun 3, 207 (July, 1991))."}, "primary cortical neurons": {"system": "primary cortical neurons", "experiment": "PSD-95 density in primary cortical neuron culture", "type": "cell-based, rat", "conditions": "neurons treated for 2 hrs", "description": "Methods: 1. Primary cultures of neurons were prepared as follows. Newborn rats were sacrificed on postnatal day 1. Cerebral cortex tissue was then dissected and dissociated individually from each pup with the Papain Dissociation System (PDS; Worthington Biochemical Corporation) according to the manufacturer's instructions. 2. Cells were fixed with ice cold methanol, blocked with 2% bovine serum albumin (BSA) and 5% normal goat serum in Tris buffered saline containing tween 20 (TBS-T; 20 mM Tris pH 7.5, 136.8 mM NaCl, and 0.05% v/v Tween 20), and incubated with primary antibody followed by the appropriate secondary antibody. 3. Primary antibodies that were used include: monoclonal anti PSD-95 (ab-2723, Abcam), monoclonal anti Tyr-α-tubulin antibody (YL1/2) (VMA1864, Abcys, Paris, France), polyclonal anti Glu-α-tubulin antibody (L4) (AbC0101, Abcys, Paris, France), DyLight 488-labeled secondary goat anti-mouse IgG, DyLight 633-labeled secondary goat anti-rabbit IgG (KPL, Gaithersburg, Md., USA), Cy3-conjugated secondary goat anti-Rat IgG, (Jackson ImmunoResearch). 4. Images were collected with a Leica SP5 confocal laser scanning microscope (Mannheim, Germany) with 63× oil immersion optics, laser lines at 488, 561, 633 nm. Identical confocal laser scanning microscopy (CLSM) parameters (e.g., scanning line, laser light, gain, and offset etc.) were used for control and NAP treated cells.\nFor instance, a PSD-95 expression assay using primary cortical neuron cultures established from suitable animals may be performed to confirm a compound's activity in promoting cell plasticity. More specifically, primary cultures of neurons are prepared by first taking cerebral cortex tissue from newborn rats on postnatal day 1. The cerebral cortex tissue is then dissected and dissociated individually from each animal. Cells are fixed with ice cold methanol, blocked (e.g., with bovine serum albumin (BSA) and normal goat serum), and incubated with primary antibody (e.g., monoclonal antibody against PSD-95), optionally followed by the appropriate secondary antibody for imaging purposes. Images of primary neuronal cultures are taken and compared between cultures with or without being exposed to a test compound. An increased PSD-95 expression is indicative of the test compound being capable of promoting or protecting cell plasticity, especially neuronal plasticity.\nCerebral cortex tissue from newborn rats was dissected and dissociated individually from each pup with the Papain Dissociation System (PDS), (Worthington Biochemical Corporation) according to the manufacturer's instructions. Cortical neurons were maintained in Neurobasal medium (NB), (Gibco) supplemented with NeuroCult B27-SM1 ([…]), 1% Glutamax (Gibco), and grown on poly-D-lysine-coated cell culture glass cover slips.\nImages were collected with a Leica SP5 confocal laser scanning microscope (Mannheim, Germany) with 63× oil immersion optics, laser lines at 488, 561, 633 nm or with LSM 510 META (Zeiss, Jena, Germany) confocal laser scanning microscope with 63× oil immersion optics, laser lines at 488, 568, 633 nm. When comparing fluorescence intensities, identical CLSM parameters (e.g., scanning line, laser light, gain, and offset etc.) were used. All of the fluorescent signals acquired were above the autofluorescent background as measured from a control slide stained with secondary antibody without a primary antibody. To compare the relative levels of protein expression, the average integrated density (AID) image analysis procedure was used for cell immunostains. In brief, integrated density is defined by the sum of the values of the pixels in the selected region of interest (ROI). This is equivalent to the product of Area and Mean Gray Value. AID for the positive stained area was determined by measuring the fluorescent intensity of the ROI, which is above the positive cut-off intensity. […]"}, "[2]": {"biological_target": "T1, full-length human EB3 recombinant protein (Homo sapiens, UniProt Q9UPY8)", "T1 construct": "Full-length human EB3 was subcloned into pEX-N-His vector; 6xHis (N, cleaved yes); made in house; host or cells: E. coli BL21(DE3)", "T1 sequence (Q9UPY8 whole entry)": "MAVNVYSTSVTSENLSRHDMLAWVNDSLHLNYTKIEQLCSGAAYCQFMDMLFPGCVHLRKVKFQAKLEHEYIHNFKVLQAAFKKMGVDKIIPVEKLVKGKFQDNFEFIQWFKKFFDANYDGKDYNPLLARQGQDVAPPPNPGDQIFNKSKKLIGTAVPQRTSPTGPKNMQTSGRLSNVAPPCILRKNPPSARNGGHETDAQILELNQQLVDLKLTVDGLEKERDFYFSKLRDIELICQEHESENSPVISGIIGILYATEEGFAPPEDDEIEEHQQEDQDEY", "experiment": "Sulfolink coupling gel-NAP affinity chromatography with recombinant EB3, western analysis", "type": "binding", "conditions": "2 mg soluble peptide incubated with recombinant EB3 and column beads", "description": "(§1) Column load, flow through, wash and elution fractions were further analyzed by polyacrylamide gel electrophoresis, followed by western analysis with EB3 antibodies. […] Column chromatography, elution and western blots were performed as above. The extract fractions (flow, wash and elution) were separated by electrophoresis followed by protein detection (FIG. 6)."}, "astrocytes": {"system": "astrocytes", "experiment": "MT organization in astrocytes (FIG. 14)", "type": "cell-based, rat", "description": "Newborn rats (Harlan, Jerusalem, Israel) were sacrificed by decapitation, and the brain was removed (D. E. Brenneman et al., J Pharmacol Exp Ther 309, 1190 (June, 2004)). The tissue was minced with scissors and placed in Hank's balanced salts solution 1 (S1), containing HBSS (Biological Industries, Beit Haemek, Israel), 15 mM HEPES buffer, pH 7.3 (Biological Industries, Beit Haemek, Israel), and 0.25% trypsin (Biological Industries) in an incubator at 37° C. 5% CO2 for 20 min. The cells were then placed in 5 mL of solution 2 (S2) containing 10% heat inactivated fetal serum (Biological Industries), 0.1% gentamycin sulphate solution (Biological Industries), and 0.1% penicillin-streptomycin-nystatin solution (Biological Industries) in Dulbecco's modified Eagle's medium (DMEM, Sigma, Rehovot, Israel). The cells were allowed to settle and are then transferred to a new tube containing 2.5 mL of S2 and triturated using a Pasteur pipette. Cell density was determined using a hemocytometer (Neubauer Improved, Germany) and 15×10^6 cells/15 mL S2 are inoculated into each 75-cm^2 flask (Corning, Corning, N.Y., USA). Cells are incubated at 37° C. 10% CO2. The medium was changed after 24 h, and cells are grown until confluent.\nThe flasks were shaken to dislodge residual neurons and oligodendrocytes that may be present. Flasks were then washed with 10 mL cold HBSS×1, HEPES 15 mM. 5 mL of versene-trypsin solution (BioLab, Jerusalem, Israel) were added to each flask, and the flasks are incubated at room temperature for 5 min to remove astrocytes. The flasks were shaken to dislodge the cells. The versenetrypsin solution was neutralized with 5 mL of S2. The cell suspension was collected and centrifuged at 100 g for 10 min. The supernatant was removed and the cells resuspended in S2. Cells were inoculated into 75-cm^2 flasks or plated in 35-mm dishes (Corning, Corning, N.Y., USA) and incubated until confluence at 37° C. 10% CO2. […]"}, "PC12 cells [3]": {"system": "PC12 cells", "conditions": "ZnCl2 400 μM, peptide 10^−13M", "description": "FIG. 15: Rat pheochromocytoma cells (PC12) were seeded on Poly-D-Lysine coated 96-well tissue culture dishes in high concentration (30,000 cells/well). On the day of the experiment the cells were treated with ZnCl2 (400 μM) either alone or in combination with different concentration of SKIP for 4 h. After 4 h the cell viability was analyzed by MTS assay. […] All values are from one experiment performed in hexplicate.\nRat pheochromocytoma cell (PC12, ATCC, Bethesda, Md., USA) were grown in 10-cm tissue culture dishes (Corning). The base medium for this cell line was RPMI-1640 Medium (Invitrogen) supplemented with 10% heat-inactivated horse serum, 5% fetal bovine serum and solution containing 100 U/ml penicillin together with […] streptomycin (Biological Industries, Beit Haemek, Israel). The cells were incubated in 95% air; 5% CO2 in a humidified incubator at 37° C. The medium was changed every 2 to 3 days. The cells were subcultured when cell density reached 4×10^6 cells/ml. The cells were split in a ratio of 1:4.\nOn the day before the experiment cells were to be harvested, re-suspended and seeded on tissue culture dishes. For cell viability measurements, cells were seeded on Poly-D-Lysine coated 96-well tissue culture dishes (Sigma-Aldrich) at a concentration of 3×10^4 cells/well.\nThe cell viability is measured by colorimetric method that determines the number of viable cells in culture. This method is based on the bio-reduction of the tetrazolium compound [3-(4,5-dimethylthiazol-2-yl)-5-(3-carboxymethoxyphenyl)-2-(4-sulfophenyl)-2H-tetrazolium; MTS] by living cells into a colored formazan product. This reaction is occurring in the presence of an electron coupling reagent (phenazine ethosulfate; PES). The amount of formazan product is measured by ELISA plate reader at 490 nm and is directly proportional to the number of living cells in culture (CellTiter 96® AQueous One Solution Cell Proliferation Assay; Promega, Madison, Wis., USA)."}, "[4]": {"biological_target": "T2, Full-length human EB3 recombinant protein (human, UniProt Q9UPY8 1-281)", "T2 construct": "mature; Full-length protein; also called recombinant EB3; MAPRE3", "T2 sequence (Q9UPY8 whole entry)": "as above", "experiment": "competition with soluble peptide on the NAP affinity column; western blot", "description": "as §1, with “6). […] In order to verify that EB3 was indeed eluted from the column, beads were taken from the column resin mixed with sample buffer and western blot analysis was performed (FIG. 6—\"[…]\" most right lane).” for “6).”"}}, "note": "Entries after “also recorded” stand apart in the source; their conditions may differ.", "data": [{"molecule": "Acetyl-NAPVSKIPQ-NH2 (Ac-NAPVSKIPQ-NH2)", "values": [{"measurement": "protection against cell death induced by zinc toxicity (MTS survival)", "setting": "PC12 cells [1]", "value": "provided protection against zinc toxicity"}, {"measurement": "protection against cell death induced by zinc toxicity (MTS survival)", "setting": "PC12 cells [1]; listed as Ac-SKIP", "value": "significantly increased survival"}, {"measurement": "protection against cell death induced by zinc toxicity (MTS survival)", "setting": "PC12 cells [1]; listed as Acetyl-NAPVSKIPQ", "value": "significantly increased survival"}]}, {"molecule": "NAPVAAAAQ [negative control peptide]", "values": [{"measurement": "derivative peptides effect on PSD-95 density vs vehicle controls (FIG. 10c)", "setting": "primary cortical neurons", "value": "did not enhance PSD-95 staining; also recorded: not affected"}, {"measurement": "competition for EB3 binding to column-bound NAP", "setting": "[2]", "value": "no competition"}]}, {"molecule": "NAPVAIPQ [NAPVAIPQ (S5A)]", "values": [{"measurement": "activity of NAP-like peptide (FIG. 14)", "setting": "astrocytes", "value": "inactive"}]}, {"molecule": "NAPVSAIPQ [negative control peptide]", "values": [{"measurement": "derivative peptides effect on PSD-95 density vs vehicle controls (FIG. 10c)", "setting": "primary cortical neurons", "value": "did not enhance PSD-95 staining; also recorded: not affected"}, {"measurement": "competition for EB3 binding to column-bound NAP", "setting": "[2]", "value": "no competition"}]}, {"molecule": "NAPVSGIPQ (synthetic novel peptide core sequence derived from hybrid microtubule end-binding protein 3 (EB3)-binding microtubule plus-end tracking proteins (+TIPs) and activity- dependent neurotrophic factor (ADNF) active core site (NAP)) [NAPVSGIPQ (SEQ ID NO:5)]", "values": [{"measurement": "protection against Zn toxicity (MTS viability vs Zn alone)", "setting": "PC12 cells [3]", "value": "showed protection"}]}, {"molecule": "NAPVSIAQ [NAPVSIAQ (P7A)]", "values": [{"measurement": "activity of NAP-like peptide (FIG. 14)", "setting": "astrocytes", "value": "inactive"}, {"measurement": "effect on MT organization", "setting": "astrocytes; 4 hours of incubation", "value": "did not mimic NAP activity"}]}, {"molecule": "NAPVSRIPQ", "values": [{"measurement": "protection against cell death induced by zinc toxicity (MTS survival)", "setting": "PC12 cells [1]", "value": "inactive"}]}, {"molecule": "NAPVTRIPQ", "values": [{"measurement": "protection against cell death induced by zinc toxicity (MTS survival)", "setting": "PC12 cells [1]", "value": "inactive"}]}, {"molecule": "NAPVSKIPQ", "values": [{"measurement": "binding result", "setting": "[4]", "value": "binds"}]}]}
